Values joined by “and” are separate entries in the source; they are usually repeats but may differ in a detail not shown here. Equal entries are not always repeated. Where two headings read alike, the source gives them in different places. Marks after values point to notes of the source that are not given here.
What was measured:
[1] = tested on: TNF-α secretion from human whole blood; test: Whole blood TNF-α secretion assay (LPS or SEB); type: cell-based
[2] = tested on: Hidradenitis suppurativa (HS); conditions: two phase II studies, moderate HS; none of the patients in the placebo group; cited from earlier work
[3] = tested on: conscious, unrestrained ferret; conditions: in vivo, po, 1 mg/kg
Emesis study in ferrets = conditions: ferret, in vivo, po
TNF-α = test: LPS-induced TNF-α in ferrets after single oral administration; conditions: oral 1 and 3 mg/kg; 1 hour after LPS (3 mg/kg ip)
[4] = Homo sapiens, 24 h, SEB 1 μg/mL, 24 hours, donor 1, read-out: Emax
[5] = Homo sapiens, 48 h, SEB 1 μg/mL, 48 hours, donor 1, read-out: Emax
[6] = Homo sapiens, 48 h, SEB 1 μg/mL, 48 hours, donor 2, read-out: Emax

**Q.** For `C[C@@H]1CCN(C(=O)CC#N)C[C@@H]1N(C)c1ncnc2[nH]ccc12` [Tofacitinib], which Emax [1, 4] is on record?
**A.** 98%

**Q.** And the Emax [1, 5]?
**A.** 95%

**Q.** And the Emax [1, 6]?
**A.** 102%

**Q.** What about the “Effect on TNF-α secretion (in words)” value ([1]; LPS 1 μg/mL, 24 hours) of the same compound?
**A.** Stimulation

**Q.** What about the “Effect on TNF-α secretion (in words)” value ([1]; LPS 1 μg/mL, 48 hours) of the same compound?
**A.** Stimulation

**Q.** What about the Emax ([1]; SEB 1 μg/mL, 24 hours, donor 2) of the same compound?
**A.** 100*

**Q.** Which Emax ([1]; Homo sapiens, 24 h, LPS 1 μg/mL, 24 hours, donor 1, Emax defined as TNF-α level in un-stimulated wells, read-out: Emax) does the source give for `CCOc1cc([C@@H](CS(C)(=O)=O)N2C(=O)c3cccc(NC(C)=O)c3C2=O)ccc1OC` [Apremilast] here?
**A.** 74%

**Q.** What about the EC50 ([1]; Homo sapiens, 24 h, LPS 1 μg/mL, 24 hours, donor 1, read-out: EC50) of the same compound?
**A.** 210 nM

**Q.** And the EC50 ([1]; Homo sapiens, 24 h, LPS 1 μg/mL, 24 hours, donor 2, read-out: EC50)?
**A.** 283 nM

**Q.** And the Emax ([1]; Homo sapiens, 24 h, LPS 1 μg/mL, 24 hours, donor 2, read-out: Emax)?
**A.** 79%

**Q.** What about the Emax [1, 4] of the same compound?
**A.** 98%

**Q.** And the EC50 ([1]; Homo sapiens, 24 h, SEB 1 μg/mL, 24 hours, donor 2, read-out: EC50)?
**A.** 620 nM

**Q.** And the Emax ([1]; Homo sapiens, 24 h, SEB 1 μg/mL, 24 hours, donor 2, read-out: Emax)?
**A.** 65%

**Q.** What about the EC50 ([1]; Homo sapiens, 48 h, LPS 1 μg/mL, 48 hours, donor 1, read-out: EC50) of the same compound?
**A.** 277 nM

**Q.** And the Emax ([1]; Homo sapiens, 48 h, LPS 1 μg/mL, 48 hours, donor 1, read-out: Emax)?
**A.** 77%

**Q.** And the EC50 ([1]; Homo sapiens, 48 h, LPS 1 μg/mL, 48 hours, donor 2, read-out: EC50)?
**A.** 364 nM

**Q.** And the Emax ([1]; Homo sapiens, 48 h, LPS 1 μg/mL, 48 hours, donor 2, read-out: Emax)?
**A.** 78%

**Q.** What about the EC50 ([1]; Homo sapiens, 48 h, SEB 1 μg/mL, 48 hours, donor 1, read-out: EC50) of the same compound?
**A.** 155 nM

**Q.** And the Emax [1, 5]?
**A.** 97%

**Q.** What about the EC50 ([1]; Homo sapiens, 48 h, SEB 1 μg/mL, 48 hours, donor 2, read-out: EC50) of the same compound?
**A.** 573 nM

**Q.** And the Emax [1, 6]?
**A.** 80%

**Q.** What about the EC50 ([1]; Homo sapiens, mean of 8 determinations (LPS and SEB, 24 and 48 hours, 2 donors), read-out: Geometric mean of EC50 values across different assay parameters) of the same compound?
**A.** 287 nM and 0.132 µg/mL

**Q.** And the “treated patients with a positive HS clinical response (HiSCR)” value [2]?
**A.** more than 50%

**Q.** Which results are given for `O=C(Nc1c(Cl)cncc1Cl)c1ccc(OC(F)F)c(OCC2CC2)c1` [Roflumilast]?
**A.** Emetogenic properties [3]: absent; NOAEL at 3 h (Emesis study in ferrets): 1 mg/kg; increase of TNF-α levels observed at 1 hour (TNF-α): attenuated in a dose-related manner

**Q.** With `O=C(Nc1c(Cl)c[n+]([O-])cc1Cl)c1ccc(OC(F)F)c(OCC2CC2)c1` [Roflumilast N-oxide] as the compound, how does the Emax ([1]; LPS 1 μg/mL, 24 hours, donor 1, Emax defined as TNF-α level in un-stimulated wells) read?
**A.** 72

**Q.** What about the EC50 ([1]; LPS 1 μg/mL, 24 hours, donor 1, read-out: EC50) of the same compound?
**A.** 23.4 nM

**Q.** What about the Emax ([1]; LPS 1 μg/mL, 24 hours, donor 2) of the same compound?
**A.** 79

**Q.** And the EC50 ([1]; LPS 1 μg/mL, 24 hours, donor 2, read-out: EC50)?
**A.** 24 nM

**Q.** What about the Emax ([1]; LPS 1 μg/mL, 48 hours, donor 1) of the same compound?
**A.** 75

**Q.** What about the EC50 ([1]; LPS 1 μg/mL, 48 hours, donor 1, read-out: EC50) of the same compound?
**A.** 38.6 nM

**Q.** And the Emax ([1]; LPS 1 μg/mL, 48 hours, donor 2)?
**A.** 78

**Q.** What about the EC50 ([1]; LPS 1 μg/mL, 48 hours, donor 2, read-out: EC50) of the same compound?
**A.** 35 nM

**Q.** What about the Emax ([1]; SEB 1 μg/mL, 24 hours, donor 1) of the same compound?
**A.** 97

**Q.** And the EC50 ([1]; SEB 1 μg/mL, 24 hours, donor 1, read-out: EC50)?
**A.** 8.69 nM

**Q.** What about the Emax ([1]; SEB 1 μg/mL, 24 hours, donor 2) of the same compound?
**A.** 66

**Q.** And the EC50 ([1]; SEB 1 μg/mL, 24 hours, donor 2, read-out: EC50)?
**A.** 35.6 nM

**Q.** What about the Emax ([1]; SEB 1 μg/mL, 48 hours, donor 1) of the same compound?
**A.** 97

**Q.** What about the EC50 ([1]; SEB 1 μg/mL, 48 hours, donor 1, read-out: EC50) of the same compound?
**A.** 4.77 nM

**Q.** And the Emax ([1]; SEB 1 μg/mL, 48 hours, donor 2)?
**A.** 80

**Q.** And the EC50 ([1]; SEB 1 μg/mL, 48 hours, donor 2, read-out: EC50)?
**A.** 33.4 nM

**Q.** And the “Geometric mean of EC50 values across different assay parameters” value ([1]; mean of 8 determinations (LPS and SEB, 24 and 48 hours, 2 donors))?
**A.** 8.80 ng/mL

**Q.** And the EC50 ([1]; mean of 8 determinations (LPS and SEB, 24 and 48 hours, 2 donors), read-out: Geometric mean of EC50 values across different assay parameters)?
**A.** 21 nM

Source: patent US20250268876A1, “TREATMENT OF HIDRADENITIS SUPPURATIVA WITH ORISMILAST” (UNION THERAPEUTICS A/S, priority 2021, published 2025)
